This is an account of results in ChEMBL document CHEMBL1201862, “PubChem BioAssay data set” (2004).

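Where inhibition never reached the appropriate level, the endpoint shown equals the highest concentration tested. Otherwise, values were interpolated linearly from a five-concentration, 48-hour dose response in 96-well plates. GI50 marks 50% less growth.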 Active and inactive are the calls of the source. Rule as the data show it: active = GI50 up to about 1.1 µM and inactive = higher.

Test systems include A549; BT-549; CCRF-CEM; COLO 205; HL-60; HOP-92; Hs-578T; MDA-MB-231; MDA-MB-435; NCI/ADR-RES; OVCAR-3; OVCAR-8; RPMI-8226; RXF 393; SF-268; SK-OV-3; SW-620; T47D; UACC-257; UO-31.
Assay in all cases: NCI anticancer screen, dose series, 48 h

Take `N#Cc1c(-c2ccccc2)c(/N=N/c2ccc(F)cc2)c(=O)n2c1[nH]c1ccccc12`: the GI50 is 3.08 µM (inactive) in the assay with A549; 8.85 µM (inactive) in the assay with BT-549; 1.26 µM (inactive) with CCRF-CEM; 3.43 µM (inactive) in the assay with COLO 205; 1.46 µM (inactive) in the assay on HL-60; 2.18 µM (inactive) in the assay with HOP-92. Besides, the GI50 was 4.43 µM (inactive) in the assay with Hs-578T; 5.21 µM (inactive) with MDA-MB-231; 4.7 µM (inactive) in the assay on MDA-MB-435; 3 µM (inactive) in the assay on NCI/ADR-RES; 2.14 µM (inactive) in the assay on OVCAR-3; 2.34 µM (inactive) in the assay with OVCAR-8. Moreover, the GI50 with RPMI-8226 is 0.708 µM (active); with RXF 393, 10.4 µM (inactive); in the assay with SF-268, 6.43 µM (inactive); in the assay with SK-OV-3 it was 4.86 µM (inactive); in the assay with SW-620 it was 4.28 µM (inactive); in the assay with T47D, 4.05 µM (inactive). Further, the GI50 was 3.21 µM (inactive) with UACC-257 and 2.97 µM (inactive) in the assay with UO-31.
Consider `COc1cc(-c2coc3c(OC)c(OC4OC(CO)C(O)C(O)C4O)c(OC)cc3c2=O)cc(OC)c1C` (stereo not given), for which the GI50 is 7.13 µM (inactive) with A549; 4.04 µM (inactive) in the assay on BT-549; 3.75 µM (inactive) in the assay with CCRF-CEM; 17.9 µM (inactive) in the assay with COLO 205; 4.53 µM (inactive) in the assay on HL-60; 17.7 µM (inactive) in the assay on HOP-92. Also, the GI50 in the assay on Hs-578T was 4.17 µM (inactive); with MDA-MB-231 it was 15.1 µM (inactive); with MDA-MB-435, 3.85 µM (inactive); in the assay on NCI/ADR-RES, 7.36 µM (inactive); in the assay with OVCAR-3, 7.26 µM (inactive); in the assay on OVCAR-8, 3.38 µM (inactive). Also, the GI50 in the assay with RPMI-8226 is 4.54 µM (inactive); in the assay on RXF 393, 2.56 µM (inactive); in the assay on SF-268, 4.84 µM (inactive); with SK-OV-3, 7.96 µM (inactive); in the assay on SW-620 it was 6.1 µM (inactive); with T47D, 9.14 µM (inactive). In addition, the GI50 is 14.2 µM (inactive) in the assay on UACC-257 and 4.42 µM (inactive) in the assay on UO-31.
For `CC[C@H]1CN(C)[C@H]2Cc3c([nH]c4ccccc34)C(=O)C[C@H]1C2C(=O)OC` (stereo not given in full), the GI50 in the assay on A549 was > 100 µM (inactive); in the assay on BT-549 it was > 100 µM (inactive); with CCRF-CEM, 97.5 µM (inactive); in the assay on COLO 205, > 100 µM (inactive); in the assay on HL-60 it was 68.9 µM (inactive); in the assay on HOP-92, > 100 µM (inactive). For the same compound, the GI50 in the assay with Hs-578T, with MDA-MB-231, in the assay with MDA-MB-435, in the assay on NCI/ADR-RES, with OVCAR-3 and in the assay with OVCAR-8 was > 100 µM (inactive) throughout. Besides, the GI50 with RPMI-8226 is 57.8 µM (inactive); with RXF 393 it was > 100 µM (inactive); with SF-268, > 100 µM (inactive); with SK-OV-3, > 100 µM (inactive); in the assay on SW-620, > 100 µM (inactive); with T47D, > 100 µM (inactive). For the same compound, the GI50 with UACC-257 and in the assay with UO-31 was > 100 µM (inactive) throughout.
For the compound `Nc1ccc2[nH]c(C(=O)N3CC(CCl)c4c3cc(N)c3ccccc43)cc2c1` (stereo not given), the GI50 is < 0.01 µM (active) in the assay with A549; < 0.016 µM (active) with BT-549; < 0.01 µM (active) in the assay on CCRF-CEM; 0.0101 µM (active) in the assay on COLO 205; < 0.01 µM (active) in the assay with HL-60; 0.0115 µM (active) with HOP-92. Also, the GI50 in the assay with Hs-578T is 0.0204 µM (active); in the assay with MDA-MB-231 it was < 0.0208 µM (active); in the assay on MDA-MB-435, 0.011 µM (active); in the assay on NCI/ADR-RES, < 0.01 µM (active); with OVCAR-3, 0.0166 µM (active); in the assay with OVCAR-8 it was < 0.01 µM (active). For the same compound, the GI50 in the assay with RPMI-8226 is < 0.0108 µM (active); with RXF 393, < 0.01 µM (active); in the assay on SF-268, < 0.01 µM (active); in the assay with SK-OV-3, 0.0175 µM (active); in the assay on SW-620 it was < 0.01 µM (active); in the assay with T47D, 0.0119 µM (active). Also, the GI50 with UACC-257 is 0.0142 µM (active); in the assay with UO-31 it was 0.0114 µM (active).
